Drawing on ChEMBL document CHEMBL4699518, “Cytotoxic Xanthone Derivatives from the Mangrove-Derived Endophytic Fungus Peniophora incarnata Z4” (J Nat Prod, 2020), this text covers IC50 for eight compounds.

Where only a bound is given, the exact number is not on record here.

Common to all, as to format: functional, cell-based
The test system of one assay is HL-60. As to the kind of experiment: Cytotoxicity against human HL-60 cells assessed as reduction in cell viability after 48 hrs by MTT assay. The settings on record: HL-60, 48 h.
The next assay relates to A-375. Description: Cytotoxicity against human A-375 cells assessed as reduction in cell viability after 48 hrs by MTT assay. As to conditions: A-375, 48 h.
In a further assay the test system is MCF7. Description: Cytotoxicity against human MCF7 cells assessed as reduction in cell viability after 48 hrs by MTT assay. The settings on record: MCF7, 48 h.

In the case of `COC(=O)CCc1oc2cccc(O)c2c(=O)c1[C@H](O)C(=O)OC`, the IC50 in the assay on HL-60, in the assay on A-375 and in the assay with MCF7 was > 10 µM throughout.
For `COC(=O)c1c(N[C@@H]2Cc3oc4cccc(O)c4c(=O)c3[C@](O)(C(=O)OC)[C@@H]2O)ccc2oc3cccc(O)c3c(=O)c12`, the IC50 with HL-60, in the assay on A-375 and with MCF7 was > 10 µM throughout.
On to `COC(=O)c1c(O)ccc2oc3cc(O)cc(O)c3c(=O)c12`, for which the IC50 in the assay with HL-60, with A-375 and in the assay on MCF7 was > 10 µM throughout.
Consider `COC(=O)[C@@]1(O)c2c(oc3cccc(O)c3c2=O)C[C@@H](OC)[C@H]1O`, for which the IC50 in the assay on HL-60, with A-375 and with MCF7 was > 10 µM each time.
Regarding `COC(=O)[C@@]1(O)c2c(oc3cccc(O)c3c2=O)[C@@H](O)C[C@@H]1O`, the IC50 with HL-60, in the assay with A-375 and with MCF7 was > 10 µM each time.
`COC(=O)[C@@]1(O)c2c(oc3cccc(O)c3c2=O)C[C@@H](S)[C@@H]1O`: the IC50 is 4.9 µM in the assay with HL-60, 8.6 µM in the assay with A-375 and 6.5 µM with MCF7.
On to `O=C1N[C@@H]2Cc3oc4cccc(O)c4c(=O)c3[C@@]1(O)[C@@H]2O`, for which the IC50 with HL-60, in the assay on A-375 and with MCF7 was > 10 µM each time.
Consider `COc1cccc2c1C(=O)c1c(O)c3c(c(O)c1C2=O)C[C@@](O)(C(=O)CO)C[C@@H]3O[C@H]1C[C@H](N)[C@H](O)[C@H](C)O1` [DOXORUBICIN], for which the IC50 with HL-60 was 1.2 µM; in the assay on A-375, 2.1 µM.
